Where two headings read alike, the source gives them in different places.
Legend:
[1] = biological target: T1, MspA-PBA (phenylboronic acid modified hetero-octameric (N90C)1(M2)7 MspA) (Mycolicibacterium smegmatis, UniProt A0QR29, D117C/D118N/D120N/D145R/D161R/E166K); type: binding, Mycobacterium smegmatis
T1 construct: H6 (hexa-histidine) (C); 3-(maleimide) phenylboronic acid (MPBA) adduct on the thiol of Cys90; made in house; host or cells: E. coli BL21 (DE3) pLysS, co-expression from pETDuet-1
Description: FIG. 46: Definition of event parameters. […] The measurement was carried out as described in Methods in Example 2. The chambers were filled with a 1.5 M KCl buffer (1.5 M KCl, 10 mM MOPS, pH 7.0). A transmembrane potential of +200 mV was continually applied. AMP was added to cis with a final concentration of 300 μM. The open pore current (Ip), the residual current (Ib), the dwell time (τoff) and the inter-event duration (τon) are defined as marked on the trace. The percentage blockage (% Ib) is defined as (Ip−Ib)/Ip. The noise amplitude (S.D.) is defined as the standard deviation of the blockage level.
(§1) NMPs consist of a ribose, a phosphate group and a nucleobase, serving as monomeric units of RNA. […] Experimentally, single channel recording was performed using MspA-PBA in a 1.5 M KCl buffer (1.5 M KCl, 10 mM MOPS, pH 7.0) (Methods in Example 2). A transmembrane potential of +200 mV was continually applied. Four canonical NMPs, adenine mononucleotide (AMP), guanine mononucleotide (GMP), cytosine mononucleotide (CMP) and uracil mononucleotide (UMP) were tested as analytes (FIG. 33d). Either type of NMP was added to cis at a final concentration of 300 μM. Subsequently, successive resistive pulses caused by either type of NMP were immediately observed (FIG. 33d). However, no events were observed when M2 MspA was tested, confirming that the PBA located at the pore constriction is critical in the generation of NMP sensing events (FIG. 44). At this condition, ˜1800 events/h were obtained from each pore. The pore could normally withstand a few hours of continuous measurement. Deoxyribonucleoside monophosphate (dNMP) fails to report any event when sensed by MspA-PBA (FIG. 45). This is expected because dNMPs have no cis-diol structure and can't form the boronate ester which is necessary for sensing. The molecular mechanism of sensing which results from reversible covalent bond formation between an NMP and the PBA at the pore constriction is thus confirmed.
To describe NMP sensing events quantitatively, the event dwell time (τoff), the inter-event interval (τon), the percentage blockage (% Ib=(Ip−Ib)/Ip) and the noise amplitude (S.D.) were derived as described in FIG. 46. Generally, the histograms of τoff and τon show an exponential distribution, and could be fitted to derive the mean time constants τoff or τon, respectively. The histograms of % Ib and S.D. show a Gaussian distribution, which could be fitted to derive the mean percentage blockage % Ib and S.D., respectively. During NMP sensing, by varying the NMP concentrations in cis, the reciprocal of dwell time (1/τoff) remains constant, consistent with a unimolecular dissociation mechanism. Whereas the reciprocal of the inter-event interval (1/τon) linearly correlates with the NMP concentration in cis (Tables 8-11, FIG. 47-50), consistent with a bimolecular model. The dependence of the applied voltage during NMP sensing was investigated using AMP as a representative analyte. […] This is expected because in a pH 7.0 buffer, the phosphate group of NMP is negatively charged and the electrophoretic force applied on the NMP analyte can strongly regulate the rate of event appearance and the event dwell time.

M2 MspA = M2 MspA (Mycolicibacterium smegmatis, UniProt A0QR29, D117N/D118N/D120N/D145R/D161R/E166K); experiment: NMP sensing performed with M2 MspA (control without PBA); type: binding, Mycobacterium smegmatis; conditions: NMP 1 mM in cis, +200 mV
M2 MspA, sequence (A0QR29 28-211 D117N/D118N/D120N/D145R/D161R/E166K): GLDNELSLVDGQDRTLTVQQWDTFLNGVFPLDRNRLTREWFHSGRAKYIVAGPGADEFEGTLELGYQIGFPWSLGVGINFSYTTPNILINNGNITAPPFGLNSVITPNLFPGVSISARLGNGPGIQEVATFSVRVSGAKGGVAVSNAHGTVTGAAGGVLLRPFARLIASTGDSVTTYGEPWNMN
Description: FIG. 44: NMP sensing performed with M2 MspA. (a-d) Representative traces of (a) CMP, (b) UMP, (c) AMP, (d) GMP sensing performed with M2 MspA. All measurements were carried out as described in Methods in Example 2 in a 1.5 M KCl buffer (1.5 M KCl, 10 mM MOPS, pH 7.0). A +200 mV bias was continually applied. NMPs were added to cis with a final concentration of 1 mM for each analyte.
as §1

[2] = biological target: T2, MspA-PBA (boronic acid appended hetero-octameric MspA) (Mycolicibacterium smegmatis, UniProt A0QR29, D117C/D118N/D120N/D145R/D161R/E166K); experiment: Single channel recording of alditol binding to MspA-PBA nanopore (standards and zero-sugar drinks); design: species or system Mycobacterium smegmatis; conditions: N=3; for ratio (mean current percentage blockage) / std (standard deviation of the blocking level): alditol 4 mM (glycerol 8 mM) in cis
T2 construct: H6 (hexa-histidine) (C); 3-(maleimide) phenylboronic acid (MPBA) adduct on the thiol of Cys90; made in house; host or cells: E. coli BL21 (DE3) pLysS, co-expression from pETDuet-1
T2 sequence (A0QR29 other isoform, or with tags, fused parts or gaps D117N/D118N/D120N/D145R/D161R/E166K): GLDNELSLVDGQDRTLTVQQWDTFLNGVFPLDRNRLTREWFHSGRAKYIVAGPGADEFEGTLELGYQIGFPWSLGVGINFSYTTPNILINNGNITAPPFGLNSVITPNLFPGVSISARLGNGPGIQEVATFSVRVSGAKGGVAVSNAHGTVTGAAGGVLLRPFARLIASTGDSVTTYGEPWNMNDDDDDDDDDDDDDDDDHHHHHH
T2 sequence (A0QR29 other isoform, or with tags, fused parts or gaps D117C/D118N/D120N/D145R/D161R/E166K): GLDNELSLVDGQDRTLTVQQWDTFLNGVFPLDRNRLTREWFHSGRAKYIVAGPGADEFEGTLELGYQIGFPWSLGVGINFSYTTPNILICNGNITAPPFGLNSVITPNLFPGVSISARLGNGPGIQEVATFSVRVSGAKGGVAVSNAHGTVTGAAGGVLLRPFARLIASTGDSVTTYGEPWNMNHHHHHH
Description: FIG. 88: Definition of event parameters. (a) A representative electrophysiology trace containing nanopore events. Xylitol was treated as the model analyte. I0 is the open pore current and Ib is the residual current caused by alditol blockade. ratio is derived from (I0−Ib)/I0, which is defined as the percentage blockage. τoff represents the dwell time of an event. τon represents the inter-event interval. std is the standard deviation value of the blockage level. (b-c) The histogram plot of ratio (b) and std (c) acquired from a continually recorded trace. The histograms were Gaussian fitted and the peaks of the fitting results respectively represent the mean value of ratio and the mean std. (d-e) The histogram plots of τoff (d) and τon (e) acquired from a continually recorded trace. The histogram plots were respectively fit to a single exponential curve, according to the equation y=a*exp (−x/τ), from which the mean event dwell time (τoff) (d) and the mean inter-event interval (τon) (e) were respectively derived. If not otherwise stated, all results in this manuscript were described by event parameters defined above.
All subsequent nanopore measurements were carried out with a 1.5 M KCl buffer (1.5 M KCl, 10 mM 3-(N-Morpholino) propanesulfonic acid (MOPS), pH 7.0) and a +100 m V continually applied potential (Method 1 in Example 3). 13 types of alditols, which were derived from the reduction of the carbonyl group of C3-C6 monoaldoses were treated as model polyols (FIGS. 77b and 83). The PBA of MspA-PBA can complex with a polyol, forming a cyclic ester at the pore constriction and resulting in the corresponding nanopore event being reported. All alditols were added to the cis side of the pore and the final concentration of alditols was set at 4 mM with the exception of glycerol, which was set at 8 mM instead. […] In addition, single molecule sensing of glycerol and D-Sorbitol by MspA-PBA are as shown in FIGS. 104 and 105, respectively.
To describe the sensing events quantitatively, event parameters such as the open-pore current (I0), the current blockade (Ib), the percentage blockage (ratio), the event dwell time (τoff), the inter-event intervals (τon) and the standard deviation value of the blockage level (std) were defined as described in FIG. 88. The percentage blockage, also referred to for simplicity as ratio, is defined as (I0−Ib)/I0.
Quantitatively, the reciprocal of the mean inter-event interval (1/τon, N=3) is linearly correlated with the alditol concentration, consistent with a bimolecular model. The mean event dwell time τoff (N=3) however is independent of the alditol concentration, and this is consistent with a unimolecular dissociation mechanism (FIGS. 89e-92e, Table 18). […] The binding constant for borate cyclic ester formation for alditols increases as the number of hydroxyl groups in the alditol increases (FIG. 77c and Table 18), consistent with conclusions drawn previously from the corresponding NMR measurements.^52 Nanopore measurements were also performed with different applied voltages. […] This is expected because all alditols tested in this paper are electrically neutral and the formation of a borate ester is independent of the local electric field.
All nanopore measurements were performed as described previously.^1,2 Briefly, the measurement device has two custom chambers separated by a thick Teflon film containing a drilled (˜100 μm) aperture. Before the measurement, the aperture was first treated with 0.5% (v/v) hexadecane in pentane and set for pentane evaporation. Electrolyte buffer (500 μL) was added to the electrically grounded chamber (cis chamber) and the opposing chamber (trans chamber). All nanopore measurements in this paper were performed with a 1.5 M KCl buffer (1.5 M KCl, 10 mM MOPS, pH 7.0). Two custom-made Ag/AgCl electrodes were placed in both chambers in contact with the buffers and the patch-clamp amplifier to form a closed circuit. […]

Octameric M2 MspA = biological target: T3, Octameric M2 MspA (Mycolicibacterium smegmatis, UniProt A0QR29, D117N/D118N/D120N/D145R/D161R/E166K); experiment: Alditol sensing using M2 MspA nanopore (control without PBA); type: binding, Mycobacterium smegmatis; conditions: alditol 4 mM in cis, +100 mV
T3 construct: made in house; host or cells: E. coli BL21 (DE3)
T3 sequence (A0QR29 28-211 D117N/D118N/D120N/D145R/D161R/E166K): as the sequence (A0QR29 28-211 D117N/D118N/D120N/D145R/D161R/E166K) above
Description: FIG. 87: Alditol sensing using M2 MspA nanopore. Glycerol, erythritol, xylitol and sorbitol were used as the representative alditols with different number of hydroxyl groups. All measurements were carried out as described in Methods 1 in Example 3. Octameric M2 MspA was applied as the nanopore sensor. A transmembrane potential of +100 m V was continually applied. Each alditol was added to cis with a final concentration of 4 mM.
The octameric M2 MspA was used as a control in FIG. 87. It was expressed with E. coli BL21 (DE3) and purified by nickel affinity chromatography as reported previously.^1

[3] = NMP 100 μM in cis, +200 mV, three independent measurements
[4] = NMP 200 μM in cis, +200 mV, three independent measurements
[5] = NMP 300 μM in cis, +200 mV, N=3
[6] = NMP 300 μM in cis, +200 mV, three independent measurements
[7] = NMP 400 μM in cis, +200 mV, three independent measurements
[8] = NMP 500 μM in cis, +200 mV, three independent measurements
[9] = voltage series: +40 mV, AMP 500 μM in cis
[10] = voltage series: +80 mV, AMP 500 μM in cis
[11] = voltage series: +120 mV, AMP 500 μM in cis
[12] = voltage series: +160 mV, AMP 500 μM in cis
[13] = voltage series: +200 mV, AMP 500 μM in cis
[14] = voltage series: +60 mV, glycerol 12 mM, other alditols 8 mM
[15] = voltage series: +80 mV, glycerol 12 mM, other alditols 8 mM
[16] = voltage series: +100 mV, glycerol 12 mM, other alditols 8 mM
[17] = voltage series: +120 mV, glycerol 12 mM, other alditols 8 mM

Nc1ncnc2c1ncn2[C@@H]1O[C@H](COP(=O)(O)O)[C@@H](O)[C@H]1O [AMP, adenosine-5′-monophosphate]
1/τoff [1, 3]: 14.9 ± 0.5 s⁻¹
1/τon [1, 3]: 0.54 ± 0.11 s⁻¹
1/τoff [1, 4]: 15.1 ± 0.2 s⁻¹
1/τon [1, 4]: 0.82 ± 0.05 s⁻¹
% Ib (percentage blockage) [1, 5]: 10.89±0.14%
S.D. (noise amplitude of blockage level) [1, 5]: 3.14 ± 0.14 pA
τoff (mean dwell time) [1, 5]: 72.76 ± 2.07 ms
τon (mean inter-event interval) [1, 5]: 979.5 ± 106.1 ms
% Ib (percentage blockage) ([1]; NMP 300 μM in cis, +200 mV, N=3, listed as A): 10.89 ± 0.14%
1/τoff [1, 6]: 13.8 ± 0.4 s⁻¹
1/τon [1, 6]: 1.03 ± 0.11 s⁻¹
1/τoff [1, 7]: 14.6 ± 1.1 s⁻¹
1/τon [1, 7]: 1.19 ± 0.08 s⁻¹
1/τoff [1, 8]: 14.4 ± 1.8 s⁻¹
1/τon [1, 8]: 1.39 ± 0.07 s⁻¹
sensing events with MspA-PBA ([1]; analyte 1 mM in cis, +200 mV): Successive appearance of AMP sensing events was observed
Calibration coefficient δ (NMP binding events per unit concentration per min) ([1]; sole NMP 300 μM in cis, +200 mV, three independent measurements): 0.21 ± 0.02 µM⁻¹ min⁻¹
1/τoff [1, 9]: 30.5 ± 1.7 s⁻¹
1/τon [1, 9]: 0.45 ± 0.03 s⁻¹
1/τoff [1, 10]: 27.6 ± 1.9 s⁻¹
1/τon [1, 10]: 0.71 ± 0.12 s⁻¹
1/τoff [1, 11]: 24.2 ± 2.1 s⁻¹
1/τon [1, 11]: 1.13 ± 0.08 s⁻¹
1/τoff [1, 12]: 18.0 ± 1.4 s⁻¹
1/τon [1, 12]: 1.23 ± 0.11 s⁻¹
1/τoff [1, 13]: 14.5 ± 1.8 s⁻¹
1/τon [1, 13]: 1.38 ± 0.08 s⁻¹
binding events with M2 MspA (M2 MspA): No binding events were observed

OCC(O)CO [glycerol]
ratio (mean current percentage blockage) ([2]; +100 mV): 17.07 ± 0.15%
std (standard deviation of the blocking level) ([2]; +100 mV): 2.57 ± 0.07 pA
1/τon ([2]; alditol 6 mM in cis, +100 mV): 1.3 ± 0.2 s⁻¹
τoff ([2]; alditol 6 mM in cis, +100 mV): 10.5 ± 0.8 ms
1/τon ([2]; alditol 8 mM in cis, +100 mV): 1.7 ± 0.2 s⁻¹
τoff ([2]; alditol 8 mM in cis, +100 mV): 10.3 ± 0.4 ms
1/τon ([2]; alditol 10 mM in cis, +100 mV): 2.1 ± 0.3 s⁻¹
τoff ([2]; alditol 10 mM in cis, +100 mV): 10.5 ± 0.7 ms
1/τon ([2]; alditol 12 mM in cis, +100 mV): 2.5 ± 0.3 s⁻¹
τoff ([2]; alditol 12 mM in cis, +100 mV): 10.4 ± 0.5 ms
1/τon [2, 14]: 2.2 ± 0.2 s⁻¹
1/τon [2, 15]: 2.35 ± 0.14 s⁻¹
1/τon [2, 16]: 2.4 ± 0.3 s⁻¹
1/τon [2, 17]: 2.4 ± 0.2 s⁻¹
binding events with M2 MspA (Octameric M2 MspA): No binding events were observed

OC[C@@H](O)[C@H](O)[C@@H](O)CO [xylitol]
ratio (mean current percentage blockage) ([2]; +100 mV): 25.70±0.10%
std (standard deviation of the blocking level) ([2]; +100 mV): 6.28±0.07 pA
1/τon ([2]; alditol 2 mM in cis, +100 mV): 0.42 ± 0.02 s⁻¹
τoff ([2]; alditol 2 mM in cis, +100 mV): 515.3 ± 43.5 ms
1/τon ([2]; alditol 4 mM in cis, +100 mV): 0.84 ± 0.04 s⁻¹
τoff ([2]; alditol 4 mM in cis, +100 mV): 496.3 ± 18.6 ms
1/τon ([2]; alditol 6 mM in cis, +100 mV): 1.3 ± 0.1 s⁻¹
τoff ([2]; alditol 6 mM in cis, +100 mV): 461.1 ± 13.4 ms
1/τon ([2]; alditol 8 mM in cis, +100 mV): 1.71 ± 0.03 s⁻¹
τoff ([2]; alditol 8 mM in cis, +100 mV): 474.6 ± 21.2 ms
1/τon [2, 14]: 1.66 ± 0.02 s⁻¹
1/τon [2, 15]: 1.69 ± 0.02 s⁻¹
1/τon [2, 16]: 1.70 ± 0.03 s⁻¹
1/τon [2, 17]: 1.68 ± 0.04 s⁻¹
binding events with M2 MspA (Octameric M2 MspA): No binding events were observed

From patent US20240418701A1, “SINGLE MOLECULE IDEN[…] A REACTIVE HETERO-NANOPORE” (priority 2021, published 2024)
